According to patent US8772307B2, “Substituted spiro compounds and their use for producing pain-relief medicaments” (Gruenenthal GmbH, priority 2005, dated 2014):

Assays:
[1] = molecular target: T1, rat-species vanilloid receptor 1 (VR1/TRPV1) (Rattus norvegicus, UniProt O35433); assay: Functional testing on vanilloid receptor 1 (VR1/TRPV1): FLIPR Ca2+ inflow assay in rat dorsal root ganglia cells (% activation / % inhibition vs capsaicin); assay type: cell-based; settings: for inhibition at 10 µM: inhibition compared to 10 μM CP (capsaicin); for activation at 10 µM: stimulation compared to 10 μM CP (capsaicin); for IC50: capsaicin (CAP) stimulus, average
T1 construct: endogenous in cells; host or cells: primary cells dissociated from rat dorsal root ganglia (DRG)
Protocol: Preference may also be given to substituted spiro compounds according to the invention of general formula I which in a FLIPR assay in a concentration of 10 μM display inhibition of the Ca^2+ ion inflow in dorsal root ganglia of rats of at least 30%, preferably of at least 40%, particularly preferably of at least 50%, most particularly preferably of at least 70%, even more preferably of at least 90%, compared to the maximum achievable inhibition of the Ca^2+ ion inflow with capsaicin in a concentration of 10 μM.
In the FLIPR assay, the Ca^2+ inflow is quantified using a Ca^2+-sensitive dye (type Fluo-4, Molecular Probes Europe BV, Leiden, Netherlands) in a fluorescent imaging plate reader (FLIPR, Molecular Devices, Sunnyvale, USA), as described hereinafter.
I. Functional Testing Carried Out on the Vanilloid Receptor 1 (VR1/TRPV1 Receptor)
(§1) The agonistic or antagonistic effect of the substances to be tested can be determined on the rat-species vanilloid receptor 1 (VR1/TRPV1) using the following assay. According to this assay, the Ca^2+ inflow is quantified through the receptor channel using a Ca^2+-sensitive dye (type Fluo-4, Molecular Probes Europe BV, Leiden, Netherlands) in a fluorescent imaging plate reader (FLIPR, Molecular Devices, Sunnyvale, USA).
Complete medium: 50 mL HAMS F12 nutrient mixture (Gibco Invitrogen GmbH, Karlsruhe, Germany) with
10% by volume of FCS (foetal calf serum, Gibco Invitrogen GmbH, Karlsruhe, Germany, […]);
2 mM L-glutamine (Sigma, Munich, Germany);
1% by weight of AA solution (antibiotic/antimyotic solution, PAA, Pasching, Austria)
and 25 ng/ml NGF medium (2.5 S, Gibco Invitrogen GmbH, Karlsruhe, Germany)
Cell culture plate: Poly-D-lysine-coated, black 96 well plates having a clear base (96 well black/clear plate, BD Biosciences, Heidelberg, Germany) were additionally coated with laminin (Gibco Invitrogen GmbH, Karlsruhe, Germany), the laminin being diluted with PBS (Ca—Mg-free PBS, Gibco Invitrogen GmbH, Karlsruhe, Germany) to a concentration of 100 μg/mL. Aliquots having a laminin concentration of 100 μg/mL were removed and stored at −20° C. The aliquots were diluted with PBS in a ratio of 1:10 to 10 μg/mL laminin and in each case 50 μL of the solution were pipetted into a recess in the cell culture plate. The cell culture plates were incubated for at least two hours at 37° C., the excess solution was removed by suction-filtration and the recesses were each washed twice with PBS. The coated cell culture plates were stored with excess PBS which was not removed until just before the feeding of the cells.
Preparation of the Cells:
The vertebral column was removed from decapitated rats and placed immediately into cold HBSS buffer (Hank's buffered saline solution, Gibco Invitrogen GmbH, Karlsruhe, Germany), i.e. buffer located in an ice bath, mixed with 1% by volume (percent by volume) of an AA solution (antibiotic/antimyotic solution, PAA, Pasching, Austria). The vertebral column was cut longitudinally and removed together with fasciae from the vertebral canal. Subsequently, the dorsal root ganglia (DRG) were removed and again stored in cold HBSS buffer mixed with 1% by volume of an AA solution. The DRG, from which all blood remnants and spinal nerves had been removed, were transferred in each case to 500 μL of cold type 2 collagenase (PAA, Pasching, Austria) and incubated for 35 minutes at 37° C. After the addition of 2.5% by volume of trypsin (PAA, Pasching, Austria), incubation was continued for 10 minutes at 37° C. After complete incubation, the enzyme solution was carefully pipetted off and 500 μL of complete medium were added to each of the remaining DRG. The DRG were in each case suspended several times, drawn through cannulae No. 1, No. 12 and No. 16 using a syringe and transferred to a 50 mL Falcon tube which was filled up to 15 mL with complete medium. […]

vanilloid receptor (VR1) = molecular target: T2, vanilloid receptor (VR1) (Homo sapiens, UniProt Q8NER1); assay: Functional testing on vanilloid receptor (VR1): FLIPR Ca2+ inflow assay in CHO K1 cells stably transfected with the VR1 gene; assay type: cell-based; settings: for inhibition at 10 µM: CHO-K1, inhibition compared to 10 μM CP (capsaicin); for activation at 10 µM: CHO-K1, stimulation compared to 10 μM CP (capsaicin); for IC50: capsaicin (CAP) stimulus, average
T2 construct: expressed in transfected cells; host or cells: CHO K1 cells (ECACC), stably transfected
Excerpt: II. Functional Testing Carried Out on the Vanilloid Receptor (VR1)
as §1, with “can also” for “can”, “the” for “the rat-species”, “(VR1)” for “1 (VR1/TRPV1)”, “the” for “the receptor”
Chinese hamster ovary cells (CHO K1 cells, European Collection of Cell Cultures (ECACC) United Kingdom) were stably transfected with the VR1 gene. For functional testing, these cells were plated out on poly-D-lysine-coated black 96 well plates having a clear base (BD Biosciences, Heidelberg, Germany) at a density of 25,000 cells/well. The cells were incubated overnight at 37° C. and 5% CO2 in a culture medium (Ham's F12 nutrient mixture, 10% by volume of FCS (foetal calf serum), 18 μg/ml L-proline). The next day the cells were incubated with Fluo-4 (Fluo-4 2 μM, 0.01% by volume of Pluronic F127, Molecular Probes in HBSS (Hank's buffered saline solution), Gibco Invitrogen GmbH, Karlsruhe, Germany) for 30 minutes at 37° C. Subsequently, the plates were washed 3 times with HBSS buffer and after further incubation for 15 minutes at room temperature used for Ca^2+ measurement in a FLIPR assay. The Ca^2+-dependent fluorescence was measured before and after the addition of the substances to be tested (λex wavelength=488 nm, λem=540 nm). Quantification was carried out by measuring the highest fluorescence intensity (FC, Fluorescence Counts) over time.
The FLIPR protocol consists of 2 substance additions. First the compounds to be tested (10 μM) were pipetted onto the cells and the Ca^2+ inflow was compared with the control (capsaicin 10 μM) (% activation based on the Ca^2+ signal after the addition of 10 μM capsaicin). After 5 minutes' incubation, 100 nM of capsaicin were administered and the Ca^2+ inflow was also determined.
Desensitising agonists and antagonists led to suppression of the Ca^2+ inflow. The % inhibition was calculated compared to the maximum achievable inhibition with 10 μM of capsaicin.

T1 sequence (O35433 whole entry): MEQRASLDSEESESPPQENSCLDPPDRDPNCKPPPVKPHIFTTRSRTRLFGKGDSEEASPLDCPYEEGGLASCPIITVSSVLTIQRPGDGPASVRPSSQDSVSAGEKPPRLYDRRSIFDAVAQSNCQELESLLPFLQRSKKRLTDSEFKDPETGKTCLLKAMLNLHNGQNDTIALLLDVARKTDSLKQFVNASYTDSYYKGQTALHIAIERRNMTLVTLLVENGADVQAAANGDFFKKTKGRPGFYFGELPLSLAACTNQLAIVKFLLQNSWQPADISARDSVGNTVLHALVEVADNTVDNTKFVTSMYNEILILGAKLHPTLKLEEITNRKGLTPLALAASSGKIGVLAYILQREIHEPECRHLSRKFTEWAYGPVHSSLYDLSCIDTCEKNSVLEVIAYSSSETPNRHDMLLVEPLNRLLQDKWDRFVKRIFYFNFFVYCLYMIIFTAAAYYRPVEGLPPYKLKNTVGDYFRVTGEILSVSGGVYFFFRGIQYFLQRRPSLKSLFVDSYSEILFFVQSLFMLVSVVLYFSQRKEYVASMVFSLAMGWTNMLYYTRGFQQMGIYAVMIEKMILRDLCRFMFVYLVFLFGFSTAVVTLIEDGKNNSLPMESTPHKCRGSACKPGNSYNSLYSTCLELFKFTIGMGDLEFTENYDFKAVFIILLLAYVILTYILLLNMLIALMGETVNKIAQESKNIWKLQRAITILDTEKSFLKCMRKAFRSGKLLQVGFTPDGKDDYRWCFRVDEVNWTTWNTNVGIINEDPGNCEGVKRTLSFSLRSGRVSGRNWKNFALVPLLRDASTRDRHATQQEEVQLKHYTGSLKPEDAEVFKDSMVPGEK
T2 sequence (Q8NER1 whole entry): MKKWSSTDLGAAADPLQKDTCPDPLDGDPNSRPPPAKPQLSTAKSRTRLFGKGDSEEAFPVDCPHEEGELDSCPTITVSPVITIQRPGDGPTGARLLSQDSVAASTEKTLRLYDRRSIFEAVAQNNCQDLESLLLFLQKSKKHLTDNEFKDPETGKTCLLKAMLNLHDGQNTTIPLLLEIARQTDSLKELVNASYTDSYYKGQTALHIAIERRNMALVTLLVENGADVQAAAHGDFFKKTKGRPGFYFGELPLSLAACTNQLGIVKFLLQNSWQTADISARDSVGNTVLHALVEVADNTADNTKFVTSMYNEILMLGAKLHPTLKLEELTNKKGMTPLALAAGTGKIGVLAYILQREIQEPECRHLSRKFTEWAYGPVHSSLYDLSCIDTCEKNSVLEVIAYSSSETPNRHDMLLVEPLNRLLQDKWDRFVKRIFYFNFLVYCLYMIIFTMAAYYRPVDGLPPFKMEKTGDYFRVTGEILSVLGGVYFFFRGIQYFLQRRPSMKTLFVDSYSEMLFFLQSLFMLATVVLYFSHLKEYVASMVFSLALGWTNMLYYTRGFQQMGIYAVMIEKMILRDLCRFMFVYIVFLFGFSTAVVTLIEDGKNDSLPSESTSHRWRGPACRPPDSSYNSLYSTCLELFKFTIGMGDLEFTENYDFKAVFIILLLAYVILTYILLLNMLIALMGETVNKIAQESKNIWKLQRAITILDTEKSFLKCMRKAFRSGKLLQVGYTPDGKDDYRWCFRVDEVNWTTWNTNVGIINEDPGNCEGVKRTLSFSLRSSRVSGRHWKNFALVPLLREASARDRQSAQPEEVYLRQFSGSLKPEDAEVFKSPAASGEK

inhibition at 10 µM [1]	activation at 10 µM [1]	inhibition at 10 µM (vanilloid receptor (VR1))	activation at 10 µM (vanilloid receptor (VR1))	IC50 [1]	IC50 (vanilloid receptor (VR1))	SMILES
96%	-1%	93%	0%	–	–	CC1CN(C(=O)/C=C/c2ccc(C(F)(F)F)nc2N2CCCCC2)CCC12CC(c1ccccc1)=NO2 (centres unmarked) [Compound 367, (E)-1-(6-methyl-3-phenyl-1-oxa-2,8-diazaspiro[4.5]dec-2-en-8-yl)-3-(2-(piperidin-1-yl)-6-(trifluoromethyl)pyridin-3-yl)prop-2-en-1-one]
101%	3%	60%	0%	–	–	O=C(Nc1ccc(C(F)(F)F)cc1)N1CCC2(CC1)CC(c1cccc(F)c1)=NO2 [Compound 348, 3-(3-fluorophenyl)-N-(4-(trifluoromethyl)phenyl)-1-oxa-2,8-diazaspiro[4.5]dec-2-ene-8-carboxamide]
52.5%	-0.54%	7.81%	-0.28%	–	–	FC(F)(F)c1cccc(NC(=S)N2CCC3(CC2)CC(c2ccccc2)=NO3)c1 [Compound 262, 3-phenyl-1-oxa-2,8-diazaspiro[4.5]dec-2-ene-8-thiocarboxylic acid-(3-trifluoromethylphenyl)amide]
98%	0%	36%	0%	181 nM	1440 nM	CC(C)(C)c1ccc(C=CC(=O)N2CCC3(CC2)CC(c2ccccc2)=NO3)cc1 [Compound 323, 3-(4-tert-butylphenyl)-1-(3-phenyl-1-oxa-2,8-diazaspiro[4.5]dec-2-en-8-yl)propenone]
99%	33%	81%	42%	–	–	COc1cc(C2=NOC3(CCN(C(=O)Nc4ccc(C(C)(C)C)cc4)CC3)C2)ccc1Cl [Compound 378, N-(4-tert-butylphenyl)-3-(4-chloro-3-methoxyphenyl)-1-oxa-2,8-diazaspiro[4.5]dec-2-ene-8-carboxamide]
40.3%	-0.73%	10.1%	-0.14%	–	–	CCCc1ccccc1NC(=O)N1CCC2(CC1)CC(c1ccccc1)=NO2 [Compound 22, 3-phenyl-1-oxa-2,8-diazaspiro[4.5]dec-2-ene-8-carboxylic acid-(2-propylphenyl)amide]
50.9%	-0.47%	8.28%	-0.35%	–	–	O=C(Nc1ccccc1Oc1ccccc1)N1CCC2(CC1)CC(c1ccc(C(F)(F)F)cc1)=NO2 [Compound 103, 3-(4-trifluoromethylphenyl)-1-oxa-2,8-diazaspiro[4.5]dec-2-ene-8-carboxylic acid-(2-phenoxyphenyl)amide]
48.2%	0.2%	-7.89%	0.69%	–	–	CCc1ccccc1NC(=O)N1CCC2(CC1)CC(c1cccc(OC)c1)=NO2 [Compound 156, 3-(3-methoxyphenyl)-1-oxa-2,8-diazaspiro[4.5]dec-2-ene-8-carboxylic acid-(2-ethylphenyl)amide]
74%	0.11%	25%	-0.14%	–	–	COc1cccc(C2=NOC3(CCN(C(=O)Nc4ccc(Cl)cc4)CC3)C2)c1 [Compound 39, 3-(3-methoxyphenyl)-1-oxa-2,8-diazaspiro[4.5]dec-2-ene-8-carboxylic acid-(4-chlorophenyl)amide]
80.5%	0.08%	-10.8%	-0.07%	–	–	COc1cccc(C2=NOC3(CCN(C(=O)Nc4ccc(SC)cc4)CC3)C2)c1 [Compound 65, 3-(3-methoxyphenyl)-1-oxa-2,8-diazaspiro[4.5]dec-2-ene-8-carboxylic acid-(4-methylsulphanylphenyl)amide]
106%	4%	50%	-1%	–	–	CC1CN(C(=O)Nc2ccc(C(C)(C)C)cc2)CCC12CC(c1ccccc1F)=NO2 (centres unmarked) [Compound 364, N-(4-tert-butylphenyl)-3-(2-fluorophenyl)-6-methyl-1-oxa-2,8-diazaspiro[4.5]dec-2-ene-8-carboxamide]
88.1%	0.73%	28.1%	0.66%	–	–	COc1cccc(C2=NOC3(CCN(C(=S)Nc4ccc(C(C)(C)C)cc4)CC3)C2)c1 [Compound 278, 3-(3-methoxyphenyl)-1-oxa-2,8-diazaspiro[4.5]dec-2-ene-8-thiocarboxylic acid-(4-tert-butylphenyl)amide]
72.8%	0.95%	-11.6%	-0.04%	–	–	COc1cccc(C2=NOC3(CCN(C(=O)Nc4cc(C(F)(F)F)ccc4Cl)CC3)C2)c1 [Compound 221, 3-(3-methoxyphenyl)-1-oxa-2,8-diazaspiro[4.5]dec-2-ene-8-carboxylic acid-(2-chloro-5-trifluoromethylphenyl)amide]
95%	0%	41%	0%	148 nM	1110 nM	CC(C)(C)c1ccc(C(/C=C/c2ccccc2)=C/C(=O)N2CCC3(CC2)CC(c2cccc(F)c2)=NO3)cc1 [Compound 358, (2E,4E)-3-(4-tert-butylphenyl)-1-(3-(3-fluorophenyl)-1-oxa-2,8-diazaspiro[4.5]dec-2-en-8-yl)-5-phenylpenta-2,4-dien-1-one]
103%	1%	–	–	–	–	FS(F)(F)(F)(F)c1ccc(NC(=S)N2CCC3(CC2)CC(c2ccccc2)=NO3)cc1 [Compound 330, 3-phenyl-1-oxa-2,8-diazaspiro[4.5]dec-2-ene-8-thiocarboxylic acid-(4-pentafluorosulphanylphenyl)amide]
